Test results as given in the NIST ThermoML archive (doi:10.1021/je1011423).
Numbers after ± are expanded uncertainties.

Details: Crystal; thermal gravimetric analysis

With `O=[N+]([O-])c1cc([N+](=O)[O-])c(O)c(Cl)c1O` [2-chloro-4,6-dinitroresorcinol] the Normal melting temperature was 185.00 ± 0.01 °C.
